Earlier results, collected in US6685965B1, “PROCESS FOR STABILIZING LEVOGYRE ASCORBIC ACID (LAA), A STABLE AQUEOUS LAA COMPOSITION, A PROCESS FOR PREPARING A STABLE TOPICAL SOLUTION, AN EMULSION, A VITAMIN PRODUCT, AND A METHOD FOR COSMETIC, PHARMACEUTICAL OR NUTRITIONAL TREATMENT” (Industria E Comercio de Cosmeticos Natura LTDA., priority 1997, dated 2004).

Experiments:
[1] = tested on: glucosaminoglycines, components of the extracellular matrix of the dermis; details: in the presence of LAA
[2] = tested on: human fibroblasts; details: human fibroblasts in vitro, in the presence of LAA

O=C1OC(C(O)CO)C(O)=C1O (stereo not shown) [LAA, levogyre ascorbic acid]
increase in deposition of glucosaminoglycines in the extracellular matrix [1]: 50%
increase in synthesis of glucosaminoglycines [1]: 30 to 90%
efficiency of mRNA in the translation of the polypeptidic chains of collagen [2]: about 2 times
increase in the synthesis of mRNA (collagens of type I and type III) [2]: 2 to 3 times
